The test system of test [1] is Mouse embryonic stem (ES) cells, TC1. Nature of the test: Cardiomyogenesis modulating activity assay (alpha-MHC promoter EGFP, embryoid bodies, FACS/fluorescence microscopy). The class given is cell-based. The following applies: embryoid bodies treated for 5 days, FACS. Put shortly:
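Mouse TC1 ES cells carrying an alpha-MHC promoter-EGFP reporter were formed into embryoid bodies (~600 cells, 2 days hanging drop, 2 days suspension), plated, then exposed to compounds (final 0.05% DMSO) for 5 days. Cardiomyogenesis assessed by EGFP via FACS after trypsin dissociation, fluorescence microscopy, and daily counts of beating EBs.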

Test [2] concerns MyoD and Myf5 protein expression in C2C12 cells. Nature of the test: Expression of MyoD and Myf5 (Western immunoblot) in C2C12 cells. The class given is cell-based, Murine. How it is done: (§1) a. Cell culture: Murine C2C12 myoblastic cell line (satellite cells from thigh muscle) purchased from American Tissue Type Collection (ATCC) was maintained in exponential phase of growth using 10% FBS/DMEM with Glutamax designed as GM (growth medium) supplied with antibiotic solution (Penicillin and Streptomycin) in a controlled humidified air atmosphere supplied with 5% CO2, at 37° C. in a multiwell or tissue culture Petri dishes (Corning-Costar Inc U.S.A.).
(§2) b. Induction of differentiation and test compound treatment: Every other day the cells were washed twice with phosphate buffered saline (PBS) and medium was changed until they reached 100% confluence. Confluent cells (myoblasts of the same cell density fully covering surface dish) were then guided to post mitotic status, and differentiation and fusion were initiated by replacing GM with 2% (v/v) horse serum HS/DMEM designed as DM (differentiating medium). In the above mentioned conditions C2C12 myoblasts easily and fully differentiate into myotubes, therefore we could follow up modifications of differentiation process during 5 subsequent days. During the study freshly prepared media without or with the experimental factors were changed every 24 hours. Test compounds were dissolved in DMSO and diluted with culture medium. Test compounds (if not specified, 10 μM was used, final DMSO 0.1% v/v) or DMSO (0.1% v/v) were added to the medium.
c. Expression of MyoD and Myf5: Cells were lysed and protein expression levels were analyzed by Western-immunoblot analysis, as described in the literature (Verma et al., British J Pharmacol, 2004, 143, 106-13). Equal amount of protein samples were resolved by sodium dodecyl sulphate poly-acrylamide gel electrophoresis (SDS-PAGE) and transferred to nitrocellulose membranes. The membranes were blocked with 5% bovine serum albumin (BSA) and incubated with the indicated primary antibodies for 12˜h: polyclonal C20 antion MyoD (from Santa-Cruz, Biotechnology, Santa Cruz, Calif.) diluted 1/400, polyclonal anti-Myf-5 directed against the COOH-terminal portion of the protein. After several washes in PBS, membranes were incubated with chemiluminescence reagents.

For test [3], the system named is C2C12 myoblasts. Nature of the test: Myogenesis (myotube formation) in C2C12 myoblast cells. The class given is cell-based, Murine. To be noted: C2C12 cells grown in GM. How it is done: as §1
as §2, with “Confluent cells (myoblasts of the same cell density fully covering surface dish) were then guided to post mitotic status, and differentiation and fusion were initiated by replacing GM with 2% (v/v) horse serum HS/DMEM designed as DM (differentiating medium).” left out

This note sets out measurements from patent US20090215783A1, “COMPOSITION FOR INDUCTION OR INHIBITION OF STEM CELL DIFFERENTIATION” (CHOONGWAE PHARMA CORPORATION, priority 2006, published 2009).

Take `O=C1[C@@H](Cc2ccc(O)cc2)N2C(=S)CCN(C(=O)NCc3ccccc3)[C@@H]2CN1Cc1cccc2ccccc12` [#112]: the “Cardiomyogenesis: fold change of EGFP expression level compared with DMSO control” value in test [1] is listed as 0.95 fold. For the same molecule, in test [2], the “Myf5 protein expression level” value is given as “significantly increased” and the “MyoD protein expression level” value is “significantly increased”. Moreover, the “expression of Myf5 compared with DMSO control, dose dependence” value in test [2] (5 and 10 μM) is recorded as “dose-dependently increased”. Further, in test [2] (co-treated with Wnt1), the “Myf-5 expression on co-treatment with Wnt1 conditioned medium” value was “further enhanced”. In addition, the “myotube formation in growth medium (GM)” value in test [3] is listed as “extensive myotube formation”.
